Counter-ions that a name gives are not always drawn. Some results are limits rather than exact numbers.

The test system of one assay is E. coli ATCC 25992. The assay is described as follows: In vitro MIC, agar dilution. Format: cell-based. As to conditions: Escherichia coli, ATCC25992, read-out: minimum inhibitory concentration (MIC). The gist of the method:
(§1)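 Agar dilution, Mueller-Hinton; drug 128 → ≤0.25 μg/mL two-fold, duplicates. Inoculum ~10^4 cfu/spot (log phase). 35-36 °C, 16-20 h. MIC = lowest conc. with no growth.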

Another assay has as its system E. faecalis ATCC 29212. The assay is described as follows: In vitro MIC, agar dilution. Format: cell-based. The note with it: Enterococcus faecalis, ATCC29212, read-out: minimum inhibitory concentration (MIC). The gist of the method:
as §1
For orientation: In agar dilution the substance is mixed into plates at graded concentrations.

Another assay has as its system E. faecalis VanB(Van^R). Put plainly: In vitro MIC, agar dilution. Format: cell-based. As to conditions: Enterococcus faecalis, read-out: minimum inhibitory concentration (MIC). The gist of the method: as §1
A further assay deals with E. faecium A491(Amp^R). The assay is described as follows: In vitro MIC, agar dilution. Type of assay: cell-based. The note with it: Enterococcus faecium, read-out: minimum inhibitory concentration (MIC). In a few lines: as §1
In the next assay the test system is E. faecium ATCC 35667. The assay is described as follows: In vitro MIC, agar dilution. As to conditions: Enterococcus faecium, ATCC35667, read-out: minimum inhibitory concentration (MIC). Format: cell-based. The gist of the method:
as §1

Another assay has as its system E. faecium VanA(Van^R). Put plainly: In vitro MIC, agar dilution. Format: cell-based. The note with it: Enterococcus faecium, read-out: minimum inhibitory concentration (MIC). The gist of the method: as §1
A further assay concerns P. aeruginosa ATCC 27853. Put plainly: In vitro MIC, agar dilution. As to conditions: Pseudomonas aeruginosa, ATCC27853, read-out: minimum inhibitory concentration (MIC). Type of assay: cell-based. In a few lines:
as §1

Assay [1] concerns S. aureus 76(Meth^R)(lac^+). Put plainly: In vitro MIC, agar dilution. The note with it: Staphylococcus aureus, read-out: minimum inhibitory concentration (MIC). Format: cell-based. The gist of the method:
as §1

Assay [2] has as its system S. aureus ATCC 13709(Meth^S). Put plainly: In vitro MIC, agar dilution. Type of assay: cell-based. As to conditions: Staphylococcus aureus, ATCC13709, S. aureus ATCC 13709(Meth^S); read-out: minimum inhibitory concentration (MIC). The gist of the method: as §1
The next assay concerns S. aureus ATCC 29213. Put plainly: In vitro MIC, agar dilution. The note with it: Staphylococcus aureus, ATCC29213, read-out: minimum inhibitory concentration (MIC). Format: cell-based. In a few lines: as §1
The subject of assay [3] is S. aureus ATCC 33593(Meth^R). The assay is described as follows: In vitro MIC, agar dilution. Type of assay: cell-based. As to conditions: Staphylococcus aureus, ATCC33593, read-out: minimum inhibitory concentration (MIC). The gist of the method:
as §1

Assay [4] relates to S. aureus PC1(Meth^S)(lac^+). The assay is described as follows: In vitro MIC, agar dilution. Type of assay: cell-based. The note with it: Staphylococcus aureus, read-out: minimum inhibitory concentration (MIC). The gist of the method:
as §1

The test system of assay [5] is S. aureus Spain #356(Meth^R). The assay is described as follows: In vitro MIC, agar dilution. The note with it: Staphylococcus aureus, read-out: minimum inhibitory concentration (MIC). Type of assay: cell-based. In a few lines:
as §1

For assay [6], the system named is S. haemolyticus 05(Meth^R). Put plainly: In vitro MIC, agar dilution. The note with it: Staphylococcus haemolyticus, read-out: minimum inhibitory concentration (MIC). Format: cell-based. In a few lines:
as §1

Assay [7] relates to S. aureus Col(Meth^R)(lac^-). The assay is described as follows: In vitro MIC, agar dilution. Format: cell-based. The note with it: Staphylococcus aureus, read-out: minimum inhibitory concentration (MIC). The gist of the method:
(§2)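 Two-fold dilutions (128 to ≤0.25 μg/mL, in duplicate) were poured into Mueller-Hinton agar. Log-phase broth cultures were spot-inoculated at about 10^4 cfu per spot and incubated 35-36°C for 16-20 hours; the MIC was the lowest concentration inhibiting growth. Col is a high-level PBP2a producer; Col 8A is its isogenic PBP2a-lacking partner.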

The test system of assay [8] is S. aureus Col8A(Meth^S)(lac^-). The assay is described as follows: In vitro MIC, agar dilution. As to conditions: Staphylococcus aureus; S. aureus Col8A(Meth^S)(lac^-); read-out: minimum inhibitory concentration (MIC). Format: cell-based. In a few lines:
as §2

The subject of assay [9] is S. aureus strain ATCC 13709 (methicillin-susceptible). The assay is described as follows: Murine model for lethal bacteremic peritonitis. Format: in vivo, female Swiss-Webster mice. As to conditions: Staphylococcus aureus, ATCC13709, SC, 72 h; for responders at 0.3125 mg/kg / responders at 0.625 mg/kg / responders at 2.5 mg/kg / responders at 5 mg/kg: read-out: Survivors; for responders at 1.25 mg/kg: read-out: Survivors (converted); for ED50: two equal doses, IP challenge, read-out: ED50. The gist of the method:
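Female Swiss-Webster mice were challenged IP with an LD100 inoculum in 7% hog gastric mucin, then given test drug subcutaneously in twofold increments (0.01–512 mg/kg) as two equal doses at challenge and 2 h later, 10 mice per group. Survival was scored at 72 h; PD50 (total mg/kg) was derived by probit.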

The term ED50 denotes the dose that gives a 50% effect, or the effect in half of the subjects. As to `NC(=O)[C@@H](N)CSCc1cnccc1SC1=C(C(=O)O)N2C(=O)[C@@H](NC(=O)/C(=N\O)c3nc(N)sc3Cl)[C@H]2SC1` [Cmpd 59, (7R)-7-[(Z)-2-(2-amino-5-chlorothiazol-4-yl)-2-(hydroxyimino)acetamido]-3-(3-(2R-2-carboxamido-2-aminoethylthiomethyl)pyrid-4-ylthio)-3-cephem-4-carboxylate, trifluoroacetic acid salt], the MIC with E. coli ATCC 25992 stood at 8 µg/mL; in the assay on E. faecalis ATCC 29212, 0.5 µg/mL; in the assay on E. faecalis VanB(Van^R), 0.5 µg/mL; in the assay with E. faecium A491(Amp^R), 16 µg/mL; in the assay on E. faecium ATCC 35667 it was 1 µg/mL; with E. faecium VanA(Van^R) it was 2 µg/mL. For the same compound, the MIC is more than 32 µg/mL in the assay with P. aeruginosa ATCC 27853; 2 µg/mL in assay [1]; 0.13 µg/mL in assay [2]; 0.5 µg/mL with S. aureus ATCC 29213; 2 µg/mL in assay [3]; 0.5 µg/mL in [4]. In addition, the MIC turned out to be 4 µg/mL in [5], 4 µg/mL in assay [6], 2 µg/mL in assay [7] and 0.25 µg/mL in assay [8]. Moreover, the responders at 0.3125 mg/kg in assay [9] amounted to 40%. Also, the responders at 0.625 mg/kg in assay [9] was 60%. In addition, the responders at 1.25 mg/kg in [9] is 40%. Also, the responders at 2.5 mg/kg in assay [9] amounted to 40%. Moreover, the responders at 5 mg/kg in [9] was 100%. In addition, in [9], the ED50 was determined as 0.81 mg/kg.
With `Nc1nc(/C(=N/O)C(=O)N[C@@H]2C(=O)N3C(C(=O)O)=C(Sc4ccncc4CSC4CCNC4)CS[C@H]23)cs1` (stereo partly drawn) [Cmpd 17, (7R)-7-[(Z)-2-(aminothiazol-4-yl)-2-(hydroxyimino)acetamido]-3-[3-(3-pyrrolidinothiomethyl)pyrid-4-ylthio]-3-cephem-4-carboxylate, trifluoroacetic acid salt], the MIC is 2 µg/mL in the assay with E. coli ATCC 25992; 0.13 µg/mL in the assay with E. faecalis ATCC 29212; 0.5 µg/mL in the assay with E. faecalis VanB(Van^R); more than 32 µg/mL with E. faecium A491(Amp^R); 1 µg/mL with E. faecium ATCC 35667; 0.25 µg/mL in the assay on E. faecium VanA(Van^R). Moreover, the MIC was more than 32 µg/mL with P. aeruginosa ATCC 27853; 4 µg/mL in [1]; 0.25 µg/mL in [2]; 0.25 µg/mL with S. aureus ATCC 29213; 2 µg/mL in [3]; 0.25 µg/mL in assay [4]. Also, the MIC worked out at 4 µg/mL in assay [5], 8 µg/mL in [6], 2 µg/mL in [7] and 0.5 µg/mL in assay [8]. Besides, the responders at 0.3125 mg/kg in assay [9] is 20%. Besides, the responders at 0.625 mg/kg in [9] came out at 20%. For the same compound, in assay [9], the responders at 1.25 mg/kg was 50%. In addition, the responders at 2.5 mg/kg in [9] stood at 30%. Besides, the responders at 5 mg/kg in assay [9] came to 60%. The ED50 in assay [9] was 3.59 mg/kg.
Consider `NCC(O)CSCc1cnccc1SC1=C(C(=O)O)N2C(=O)[C@@H](NC(=O)/C(=N\O)c3nc(N)sc3Cl)[C@H]2SC1` (stereo partly drawn) [Cmpd 32, (7R)-7-[(Z)-2-(2-amino-5-chlorothiazol-4-yl)-2-(hydroxyimino)acetamido]-3-[3-(3-amino-2-hydroxyprop-1-ylthiomethyl)pyrid-4-ylthio]-3-cephem-4-carboxylate, trifluoroacetic acid salt], for which the MIC was 8 µg/mL in the assay with E. coli ATCC 25992; not above 0.06 µg/mL in the assay on E. faecalis ATCC 29212; 0.13 µg/mL in the assay on E. faecalis VanB(Van^R); 8 µg/mL in the assay with E. faecium A491(Amp^R); 0.5 µg/mL with E. faecium ATCC 35667; 1 µg/mL in the assay on E. faecium VanA(Van^R). The MIC is more than 32 µg/mL with P. aeruginosa ATCC 27853; 2 µg/mL in assay [1]; 0.13 µg/mL in [2]; 0.25 µg/mL in the assay on S. aureus ATCC 29213; 2 µg/mL in assay [3]; 0.5 µg/mL in assay [4]. The MIC stood at 2 µg/mL in assay [5], 4 µg/mL in [6], 1 µg/mL in [7] and 0.25 µg/mL in assay [8]. Besides, in assay [9], the responders at 0.3125 mg/kg was 0%. In addition, the responders at 0.625 mg/kg in assay [9] amounted to 10%. Besides, in assay [9], the responders at 1.25 mg/kg is 50%. Also, the responders at 2.5 mg/kg in [9] is 50%. Also, the responders at 5 mg/kg in assay [9] came out at 80%. Moreover, the 50% effective dose (ED50) in [9] came to 2 mg/kg.
Regarding `CN(C)C(=O)[C@@H](N)CSCc1cnccc1SC1=C(C(=O)O)N2C(=O)[C@@H](NC(=O)/C(=N\O)c3nc(N)sc3Cl)[C@H]2SC1` [Cmpd 58, (7R)-7-[(Z)-2-(2-amino-5-chlorothiazol-4-yl)-2-(hydroxyimino)acetamido]-3-(3-(2R-2-N,N-dimethylcarboxamido-2-aminoethylthiomethyl)pyrid-4-ylthio)-3-cephem-4-carboxylate, trifluoroacetic acid salt], the MIC in the assay on E. coli ATCC 25992 is 8 µg/mL; in the assay on E. faecalis ATCC 29212, 0.5 µg/mL; with E. faecalis VanB(Van^R) it was 0.5 µg/mL; in the assay on E. faecium A491(Amp^R) it was 16 µg/mL; with E. faecium ATCC 35667, 1 µg/mL; with E. faecium VanA(Van^R) it was 2 µg/mL. In addition, the MIC in the assay with P. aeruginosa ATCC 27853 was more than 32 µg/mL; in [1] it was 4 µg/mL; in [2], 0.5 µg/mL; in the assay with S. aureus ATCC 29213 it was 0.5 µg/mL; in assay [3], 2 µg/mL; in assay [4] it was 1 µg/mL. Besides, the MIC in assay [5] came out at 4 µg/mL; in [6], 4 µg/mL; in assay [7], 4 µg/mL; in assay [8] it was 0.5 µg/mL. For the same compound, the responders at 0.3125 mg/kg in assay [9] turned out to be 10%. The responders at 0.625 mg/kg in assay [9] was determined as 10%. Further, in assay [9], the responders at 1.25 mg/kg is 20%. For the same compound, in assay [9], the responders at 2.5 mg/kg came to 50%. Moreover, in assay [9], the responders at 5 mg/kg was found to be 50%. Besides, in assay [9], the ED50 is 4.1 mg/kg.
As for `NCCOCc1cnccc1SC1=C(C(=O)O)N2C(=O)[C@@H](NC(=O)/C(=N\O)c3nc(N)sc3Cl)[C@H]2SC1` [Cmpd 40, (7R)-7-[(Z)-2-(2-amino-5-chlorothiazol-4-yl)-2-(hydroxyimino)acetamido]-3-(3-(2-aminoethoxymethyl)pyrid-4-ylthio)-3-cephem-4-carboxylate, trifluoroacetic acid salt], the MIC in the assay with E. coli ATCC 25992 is 8 µg/mL; with E. faecalis ATCC 29212 it was 0.13 µg/mL; in the assay on E. faecalis VanB(Van^R), 0.25 µg/mL; in the assay with E. faecium A491(Amp^R), 16 µg/mL; in the assay with E. faecium ATCC 35667, 1 µg/mL; in the assay with E. faecium VanA(Van^R), 2 µg/mL. For the same compound, the MIC with P. aeruginosa ATCC 27853 was more than 32 µg/mL; in assay [1], 2 µg/mL; in assay [2], 0.25 µg/mL; with S. aureus ATCC 29213, 0.25 µg/mL; in [3], 2 µg/mL; in assay [4], 0.13 µg/mL. The MIC in assay [5] was found to be 2 µg/mL; in [6], 4 µg/mL; in assay [7] it was 2 µg/mL; in assay [8], 0.5 µg/mL.

The values are drawn from patent US6087355A, “Cephalosporin antibiotics” (Microcide Pharmaceuticals, Inc., priority 1996, dated 2000).
